The source of these data is patent US20140206635A1, “METAL-SALEN COMPLEX COMPOUND, LOCAL ANESTHETIC AND ANTINEOPLASTIC DRUG” (IHI CORPORATION, priority 2011, published 2014).

A short description of data set [1]: Magnetic field-magnetization curve (MPMS7). As to conditions: magnetic field less than 10000 Oe (1 T); 37 degrees Celsius. Type of data set: physicochemical. The text has this:
However, when the magnetic field exceeds 10000 Oe (1 T), the Co salen complex compound or the Mn salen complex compound has large magnetization and is most suited for magnetic induction drug delivery systems which use superconducting magnets.

In data set [2] the test system is rat L6 cell. In words: Rat L6 cell culture with bar magnet, cell count proximal vs distal to the magnet. The following applies: after 48 hours, bar magnet at flask. Type of data set: cell-based. The procedure:
Culture medium was sprinkled with metal-salen complex compound powder, which is obtained with respect to each of the Fe salen complex compound, the Mn salen complex compound, the Cr salen complex compound, and the Co salen complex compound by the above-described method, in amounts allowing magnetic attraction to be visibly observed at a rat L6 cell confluence of 30%, and the state of the medium was photographed after 48 hours.
Then, after 48 hours, the bottom face of the rectangular flask was photographed from one end to the other, and the cell count was calculated. Incidentally, Referring to FIG. 8, a “position proximal to the magnet” means within a projection area of the magnet end surface at the bottom of the rectangular flask, and a “position distal to the magnet” means a region on the side opposite the magnet end surface at the bottom of the rectangular flask.
As a result, the magnetic drugs and the system equipped with magnetism-generating means according to the present invention can thus allow the drugs to become concentrated in target tissues and tissues of individuals.

Data set [3] can be described thus: Magnetic guidance of i.v. drug to right kidney, SNR by MRI. The following applies: mouse, intravenous; about 0.3 T at right kidney; after 10 minutes; vs left kidney and control. Type of data set: in vivo. The text has this:
Next, an guidance example using a guidance system will be described. […] The metal plate 236, especially an iron plate, is placed between the pair of magnets 230 and 232 so that a magnetic field of locally uniform and strong strength can be created. An electrical magnet can be used instead of a magnet to modify the magnetic force generated in this guidance system. The magnetism-generating means can be moved to a target position of the individual on a table to allow the pair of magnetism-generating means to move in the X, Y, and Z directions. The tissue of an individual can be placed in the region of the magnetic field to concentrate the drug in the tissue.
More specifically, for example, the aforementioned Fe salen complex compound (drug concentration: 5 mg/mL (15 mM)) was injected intravenously into a mouse weighing about 30 g, a laparotomy was performed, and the mouse was placed on the iron plate 236 to locate its right kidney between the pair of magnets 230 and 232. […]
Together with the left kidney and a kidney to which no field was applied (control), a magnetic field was applied to the right kidney of the mouse; and after 10 minutes the SNR was measured by MRI in T1 mode and T2 mode.

For data set [4], the system named is Clone M3 melanoma cells. In words: Melanoma growth in mouse tail with local magnetic field. The class given is in vivo. The following applies: for melanoma extension (area of melanoma pigmentation): 12 days after initial injection, saline group 100%; for histological examination, tumor expansion of melanoma: HE, anti-Ki-67, anti-Cyclyn D1 staining. The procedure:
Melanoma was established in mouse tails in vivo by local grafting of cultured melanoma cells (Clone M3 melanoma cells). Incidentally, FIG. 11(1) is a photograph showing the effects of a saline group (saline) into which the saline water was injected instead of the Fe salen complex compound; FIG. 11(2) is a photograph showing the effects of a group (SC) into which the Fe salen complex compound was injected without applying the magnetic field; and FIG. 11(3) is a photograph showing the effect of a group (SC+Mag) into which the Fe salen complex compound was injected while applying the magnetic field (n=7-10).
The Fe salen complex compound (50 mg/kg) was administered intravenously via tail vein, followed by local application of a magnetic field by the use of a commercially available bar magnet (630 mT, a cylindrical neodymium magnet, 150 mm long and 20 mm in diameter). Application of a bar magnet was performed with 3 hour gentle contact with the site of melanoma immediately after injection of the Fe salen complex compound for 10-14 days.
Application of the bar magnet was performed in such a way so that the magnetic field strength became maximal over the area of expected melanoma extension, which was approximately […] or shorter in a mouse tail for a growth period of 2 weeks. Twelve days after the initial injection of the Fe salen complex compound, the extension of melanoma was evaluated by assessing the area of melanoma pigmentation.
A histological examination was performed as shown in FIG. 13 by means of Hematoxylin-Eosin staining and immuno-histochemical staining with an anti-Ki-67 antibody and an anti-Cyclyn D1 antibody which are both tumor proliferation markers in tissue sections.

The nature of data set [5]: Temperature rise of ointments under AC magnetic field. Type of data set: physicochemical. As to conditions: AC field 258 A, 400 kHz, 51.74 mT; for temperature rise of ointment: 300 seconds. The procedure: The aforementioned Fe salen complex compound was mixed with Vaseline, which is an adjuster for ointments, as a base at concentrations of 100 mmol and 200 mmol, respectively, to produce ointments. Then, the relationship between time and a temperature rise was measured by applying an AC magnetic field to these ointments under conditions of 258 A, 400 kHz, and 51.74 mT.
Then, the compound expressed by the aforementioned Formula (I) was mixed with Kenalog, which is an ointment for stomatitis, as a base at concentrations of 100 mmol and 200 mmol, respectively, to produce ointments. Then, the relationship between time and a temperature rise was measured by applying an AC magnetic field to these ointments under conditions of 258 A, 400 kHz, and 51.74 mT.
Next, as comparisons, the relationship between time and a temperature rise was measured by applying an AC magnetic field to each of 200 mg Vaseline and 200 mg Kenalog under conditions of 258 A, 400 kHz, and 51.74 mT.

Data set [6] can be described thus: Temperature rise under near infrared radiation. The class given is physicochemical. The following applies: 100 mmol in agarose; near infrared 600 nm to 1600 nm, 10 W. The procedure: Next, a diatomic Fe salen complex compound (CAS#14167-12-5; produced by Tokyo Chemical Industry Co., Ltd.) was dissolved in agarose to produce a 100 mmol solution, which was put in a test tube, thereby preparing a sample. A sample of pure water put in a test tube was also prepared as a comparison. Then, these samples were respectively exposed to medical near infrared radiation (wavelengths: 600 nm to 1600 nm) by TOKYO IKEN CO., LTD. by using Super Lizer PX Type I (output: 10 W).

Consider `[Fe+2].[O-]c1ccccc1C=NCCN=Cc1ccccc1[O-]` [Fe salen complex compound], for which the magnetization entry in data set [1] is “largest magnetization”. In data set [2], the “number of cells at position proximal to the magnet vs position distal to the magnet” value is reported as “dramatically lower number of cells”. Also, the “drug retention in right kidney (SNR by MRI, T1 and T2 mode)” value in data set [3] is recorded as “possible to make the drug stay in the right kidney”. The “melanoma extension (area of melanoma pigmentation)” value in data set [4] (SC group: 50 mg/kg i.v., no magnetic field) turned out to be 63.68±16.3%; in data set [4] (SC+Mag group: 50 mg/kg i.v. plus bar magnet 630 mT, 3 hour), 9.05±3.42%. Further, the “histological examination, tumor expansion of melanoma” value in data set [4] (SC, no magnetic field) is “tumor expansion of melanoma diminished”; in data set [4] (with magnetic force field application), “mostly disappeared”. The “temperature of ointment immediately after the measurement (0 second)” value in data set [5] (Kenalog base, 100 mmol) worked out at 35 degrees Celsius; in data set [5] (Kenalog base, 200 mmol) it was 35 degrees Celsius; in data set [5] (Vaseline base, 100 mmol) it was 35 degrees Celsius; in data set [5] (Vaseline base, 200 mmol) it was 35 degrees Celsius. In addition, the “temperature rise of ointment” value in data set [5] (Kenalog base, 200 mmol) was “approximately 5 degrees Celsius”; in data set [5] (Vaseline base, 200 mmol), “approximately 5 degrees Celsius”.
`Oc1ccccc1C=NCCN=Cc1ccccc1O.[Fe+2]` [diatomic Fe salen complex compound]: in data set [6], the “temperature of sample 300 seconds later” value was “approximately 53 degrees Celsius” and the “temperature of sample immediately after the measurement (0 second)” value is 26 degrees Celsius.
